What was measured:
[1] = wn = mass fraction of the nth substance listed; conditions: for surface tension liquid-gas: Maximal bubble pressure; for mass density: 101 kPa, Liquid, Buoyancy - hydrostatic balance
[2] = refractive index (Na D-line) (dimensionless); wn = mass fraction of the nth substance listed; conditions: 101 kPa, Liquid, Standard Abbe refractometry

CC(O)C(=O)[O-].CCn1cc[n+](C)c1 [1-ethyl-3-methylimidazolium lactate] + O
Conditions	mass density, [1] [kg/m3]	refractive index, [2]	surface tension liquid-gas, [1] [mN/m]
288.15 K, w2 = 0.0082	1197.3	1.5019	50.1
288.15 K, w2 = 0.0104	1198.4	1.5017	50.3
288.15 K, w2 = 0.0121	1199.4	1.5016	50.4
288.15 K, w2 = 0.0158	1201.3	1.5013	50.7
288.15 K, w2 = 0.0205	1203.8	1.5009	51
293.15 K, w2 = 0.0082	1194.1	1.5006	49.8
293.15 K, w2 = 0.0104	1195.2	1.5004	50
293.15 K, w2 = 0.0121	1196.1	1.5002	50.1
293.15 K, w2 = 0.0158	1198.1	1.4999	50.4
293.15 K, w2 = 0.0205	1200.5	1.4994	50.7
303.15 K, w2 = 0.0082	1187.6	1.498	49.1
303.15 K, w2 = 0.0104	1188.8	1.4978	49.3
303.15 K, w2 = 0.0121	1189.7	1.4977	49.4
303.15 K, w2 = 0.0158	1191.5	1.4974	49.7
303.15 K, w2 = 0.0205	1194	1.497	50.1
308.15 K, w2 = 0.0082	1184.3	1.4969	48.7
308.15 K, w2 = 0.0104	1185.5	1.4967	48.9
308.15 K, w2 = 0.0121	1186.4	1.4965	49
308.15 K, w2 = 0.0158	1188.3	1.4962	49.3
308.15 K, w2 = 0.0205	1190.7	1.4957	49.7
313.15 K, w2 = 0.0082	1180.9	1.4955	48.4
313.15 K, w2 = 0.0104	1182	1.4953	48.6
313.15 K, w2 = 0.0121	1182.9	1.4952	48.7
313.15 K, w2 = 0.0158	1184.9	1.4949	49
313.15 K, w2 = 0.0205	1187.5	1.4946	49.4
318.15 K, w2 = 0.0082	1177.6	1.4943	48.1
318.15 K, w2 = 0.0104	1178.8	1.4941	48.3
318.15 K, w2 = 0.0121	1179.7	1.494	48.4
318.15 K, w2 = 0.0158	1181.5	1.4937	48.7
318.15 K, w2 = 0.0205	1184	1.4933	49.1
323.15 K, w2 = 0.0082	1174.5	1.4931	47.7
323.15 K, w2 = 0.0104	1175.6	1.493	47.9
323.15 K, w2 = 0.0121	1176.4	1.4929	48
323.15 K, w2 = 0.0158	1178.2	1.4927	48.3
323.15 K, w2 = 0.0205	1180.6	1.4924	48.7
328.15 K, w2 = 0.0082	1171.3	1.4919	47.3
328.15 K, w2 = 0.0104	1172.5	1.4917	47.5
328.15 K, w2 = 0.0121	1173.4	1.4915	47.6
328.15 K, w2 = 0.0158	1175.3	1.4912	47.9
328.15 K, w2 = 0.0205	1177.7	1.4908	48.3
333.15 K, w2 = 0.0082	1168	1.4906	47
333.15 K, w2 = 0.0104	1169.1	1.4904	47.2
333.15 K, w2 = 0.0121	1170	1.4903	47.3
333.15 K, w2 = 0.0158	1172	1.49	47.6
333.15 K, w2 = 0.0205	1174.5	1.4896	48
